Assays:
[1] = test system: LPS-induced acute lung injury model; test: LPS-induced acute lung injury model, i.p. pre- and post-treatment; assay type: in vivo, C57BL/6N mice; conditions: vs vehicle-treated LPS mice
Description: Wild-type male C57BL/6N mice aged 8 to 10 weeks and weighing 20-24 g were purchased from Orient Bio (Seongnam, South Korea). […] Specifically, LPS (Escherichia coli, 0111: B4, Sigma) (10 μg/g) dissolved in 50 μL PBS was administered by intranasal (i.n.) inhalation. The control group received 50 μL of sterile PBS through intranasal administration. For pretreatment, YPI-A4948 dissolved in 50 μL DMSO was administered intraperitoneally (i.p) at 0.1 mg/kg, 1.0 mg/kg and 10 mg/kg, respectively, 1 hour before LPS inhalation, and for post-treatment, YPI-A4948 was administered at 0.1 mg/kg, 1.0 mg/kg, and 10 mg/kg, respectively, 12 hours after LPS inhalation. The vehicle control group was intraperitoneally administered with 50 μL DMSO at the same time point as pretreatment and post-treatment. Mice were euthanized 48 hours after LPS inhalation to remove the lungs. In addition, BALF cytospin staining and H&E lung tissue staining were performed to observe the degree of lung injury.

[2] = test system: LPS-induced lung injury model; test: LPS-induced lung injury model in mice, i.v. treatment after LPS; assay type: in vivo, C57BL/6N mice
Description: Lipid polysaccharide (LPS, 200 μg/head) dissolved in 50 μL PBS was injected intranasally into C57BL/6N mice. YPI-A4948 (1, 10 μg/kg) was administered intravenously twice in total at 6 hours and 12 hours after LPS injection, and the mice were euthanized at 24 hours after LPS inhalation to remove the lungs. Immune cell recruitment was confirmed through bronchoalveolar lavage fluid (BALF) obtained by injecting 1 mL of PBS into the removed lung and then re-extracting the PBS. Lung injury parameters were measured by ELISA after lysing lung tissue. The expression level of pendrin protein was confirmed by Western blot, and this was digitalized and measured using a shade measuring instrument (mean±SEM, n=3 per group). Pendrin mRNA levels were determined by real-time quantitative PCR in extracted lung tissue (mean±SEM, n=3 per group). IL-10, MIP-2, IL-6, and TNF-α levels were measured by ELISA in lung tissue lysates (mean±SEM n=4-7 mice per group).

[3] = test system: LPS-induced lung injury mouse model; test: LPS-induced lung injury mouse model with anion supply; assay type: in vivo, mice; conditions: 5 μg/kg i.v. once 6 h after LPS
Description: Specifically, lipid polysaccharide (LPS, 200 μg/head) dissolved in 50 μL PBS was injected intranasally, and 6 hours after LPS inhalation, YPI-A4948 was intravenously administered once at 5 μg/kg, and at the same time, OH^−, HCO3^−, and SCN^− anions were administered intranasally, respectively. The mice were euthanized 24 hours after LPS inhalation to remove the lungs. Then, lung tissue H&E staining was performed to observe the degree of lung injury, and bronchoalveolar lavage fluid (BALF) was extracted in the same manner as in Example 12, and cytopathology staining using BALF total cell count, BALF protein concentration level, and Diff-Quik Stain was performed. Data provided are mean±SEM (n=3-5 per group), scale bar is 50 μm for H&E staining and cytopathology staining imaged at 400×.

SLC26A6 = molecular target: T1, SLC26A6 (Homo sapiens, UniProt Q9BXS9); test: SLC26A6 activity, YFP fluorescence in LN-215 cells; assay type: cell-based; conditions: FIG. 16
T1 construct: expressed in transfected cells
T1 sequence (Q9BXS9 1-759): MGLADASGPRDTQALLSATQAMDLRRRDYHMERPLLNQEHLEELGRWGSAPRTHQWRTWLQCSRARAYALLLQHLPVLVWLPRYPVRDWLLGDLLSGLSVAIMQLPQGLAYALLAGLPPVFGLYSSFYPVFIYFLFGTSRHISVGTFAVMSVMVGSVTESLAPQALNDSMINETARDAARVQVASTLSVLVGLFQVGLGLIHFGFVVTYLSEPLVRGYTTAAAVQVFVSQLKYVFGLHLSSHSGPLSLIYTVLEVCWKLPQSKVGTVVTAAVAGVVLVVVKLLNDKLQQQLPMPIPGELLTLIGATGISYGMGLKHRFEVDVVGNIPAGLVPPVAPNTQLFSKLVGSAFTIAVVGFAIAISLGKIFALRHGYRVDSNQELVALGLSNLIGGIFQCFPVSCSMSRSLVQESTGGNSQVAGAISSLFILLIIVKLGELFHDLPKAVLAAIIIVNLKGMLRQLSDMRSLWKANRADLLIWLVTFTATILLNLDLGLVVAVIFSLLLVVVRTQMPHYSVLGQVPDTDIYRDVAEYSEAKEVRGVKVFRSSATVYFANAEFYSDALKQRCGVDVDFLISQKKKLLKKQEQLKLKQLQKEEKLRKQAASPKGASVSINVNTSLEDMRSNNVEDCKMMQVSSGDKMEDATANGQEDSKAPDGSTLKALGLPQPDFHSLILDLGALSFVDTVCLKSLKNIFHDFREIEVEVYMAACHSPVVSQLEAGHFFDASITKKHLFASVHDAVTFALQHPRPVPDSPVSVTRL
Description: In the case of SLC26A3 and SLC26A6, each transporter protein and halide sensitive YFP were expressed in LN-215 cells to measure the activity of the transporter protein.
Other details were carried out in the same manner as Example 5.

[4] = test system: human nasal epithelial cells (HNE); test: Volume of airway surface liquid (ASL) in IL-4-treated differentiated human nasal epithelial cells; assay type: cell-based; conditions: 30 μM, IL-4 10 ng/ml, 48 hours
Description: For differentiation of primary cultures of human nasal epithelial cells, cells were cultured in Transwell (Transwell, Costar Co., Cambridge, MA) with 0.45 µm pores at a density of 2×10^5 cells/cm^2. Cells were cultured in a 1:1 mixed culture medium of Dulbecco's modified Eagle's medium (Lonza) and bronchial epithelial growth medium (Lonza) supplemented with the following growth factors, while changing the medium every 2 to 3 days. The cells were cultured in a precipitated state in the culture medium for the first 7 days, and during the subsequent culture period, and cultured by exposing the upper part of transwell to air. After establishment of the air-liquid interface (ALI), cells were cultured and differentiated for 21 days. At all stages of culture, the cell culture medium was maintained at 5% CO2 and 37° C.
Vehicle, IL-4 (10 ng/ml), and YPI-H05 (30 μM) were added to the basal fluid of transwell in which differentiated NHE cells expressing normal pendrin were growing, and cultured at 37° C. under 5% CO2 in an incubator for 48 hours. After cultured, a round filter paper with a diameter of 10 mm was placed in the lumen side of the transwell and left for 10 seconds to absorb moisture from the airway surface liquid. Changes in the volume of airway surface liquid were measured through increased filter paper weight using a precision electronic balance.

[5] = i.p. 0.1, 1.0, 10 mg/kg 1 h before and 12 h after LPS
[6] = i.v. 1, 10 μg/kg at 6 and 12 h after LPS, vs LPS only

| Structure (SMILES) | BALF protein concentration [1, 5] | BALF total cell counts [1, 5] | Lung injury (BALF cytospin and H&E lung tissue staining) ([1]; i.p. before and after LPS) | Lung inflammatory cytokine IL-6 ([2]; ELISA in lung tissue lysates) | Lung inflammatory cytokine IL-10 ([2]; ELISA in lung tissue lysates) | Lung inflammatory cytokine MIP-2 ([2]; ELISA in lung tissue lysates) | Lung inflammatory cytokine TNF-α ([2]; ELISA in lung tissue lysates) | BALF protein concentration [2, 6] | BALF total cell counts [2, 6] | Level of pendrin mRNA in lung [2, 6] | Level of pendrin protein in lung [2, 6] | Lung injury [3] | Lung injury improvement effect when OH−, HCO3−, SCN− anions are supplied intranasally [3] | Effect on activity of SLC26A6 (SLC26A6) | Volume of airway surface liquid (ASL) reduced by IL-4 [4] |
| --- | --- | --- | --- | --- | --- | --- | --- | --- | --- | --- | --- | --- | --- | --- | --- |
| Cc1ccc2[nH]c(C(=O)O)c(CC(=O)N3CCN(c4c(C)cccc4Cl)CC3)c2c1 [YPI-A4948, 3-(2-(4-(2-Chloro-6-methylphenyl)piperazin-1-yl)-2-oxoethyl)-5-methyl-1H-indole-2-carboxylic acid] | significantly reduced | significantly reduced | significantly reduced | statistically significantly reduced | statistically significantly reduced | statistically significantly reduced | statistically significantly reduced | significantly reduced | significantly reduced | significantly reduced | significantly reduced | reduced | weakened only by SCN^− | did not inhibit |  |
| Cc1ccc(C)c(N2CCN(C(=O)Cc3c(C(=O)O)[nH]c4ccc(Cl)cc34)CC2)c1 [YPI-H05, 5-chloro-3-(2-(4-(2,5-dimethylphenyl)piperazin-1-yl-)-2-oxoethyl)-1H-indole-2-carboxylic acid] |  |  |  |  |  |  |  |  |  |  |  |  |  |  | significantly increased |
